Measured values published in patent US10251849B2, “Sublingual compositions including epinephrine nanoparticles” (NOVA SOUTHEASTERN UNIVERSITY, priority 2012, dated 2019).
Where a name gives a salt, the structure may show the parent alone. Read-outs that look alike come from different tables or passages of the source.

Experiments:
[1] = Procedure: Supernatant solution was withdrawn and filtered through 0.22 μm nylon syringe filters to be analyzed for the quantification of dissolved epinephrine.
Analysis and condition were performed according to USP 26th edition, 2003 “Epinephrine Injection Monograph.”

[2] = UV absorptivity of oxidative products of epinephrine at 310 nm; assay type: physicochemical; settings: controls, not stored, 4 mg/mL
Procedure: The supernatant was visually inspected against white background for any discoloration (USP/NF. Official Monograph: Epinephrine Injection. 31/26 ed. Rockville, Md.: United States Pharmacopeial Convention, Inc.; 2008) and then filtered and diluted to make 4 mg/mL. […] The absorptivity of all samples and controls was calculated by dividing the absorbance by the product of the concentration of the drug (g/L) and the path length (cm) of the cell used to measure the absorbance (USP/NF. Physical Tests: Spectrophotometery and Light-Scattering (851). 31/26 ed. Rockville, Md.: United States Pharmacopeial Convention, Inc.; 2008).
The absorptivity of oxidative products of epinephrine in the tablets from each formulation at each storage condition and in controls was statistically compared by two-way ANOVA and Tukey-Kramer tests.

[3] = remark: listed apart in the source
Procedure: Samples were prepared in triplicates for each concentration, n=3. All prepared samples were processed using LV-1 High Shear Fluid Processor “Microfluidizer” (Microfluidics, Newton, Mass.) equipped with G10Z reaction chamber under various pressures ranging from 15 to 30 KPsi for single or several passes. The microfluidizer-receiving coil was immersed in ice to reduce the heat produced during the process for heat-sensitive drugs. The particle size and potential of the produced nanosuspension were measured. The nanosuspension was centrifuged at 15,000 rpm and 15° C. for 30 minutes to collect the nanoparticles, and the solvent was then removed. The collected nanoparticles were completely dried by speed vacuum concentrator or lyophilization.
(§1) Nanoparticle Characterization: The particle size distribution and zeta potential of the nanosuspension was measured before and after size reduction by volume and by intensity using Mastersizer (Malvern) and Zetasizer Nano-ZS90 (Malvern), respectively. The average of 3 measurements for each sample was reported.

[4] = various concentrations
Procedure: as §1

CNC[C@H](O)c1ccc(O)c(O)c1 [Epinephrine Base, epinephrine]
Amount Dissolved ([1]; solubility in water): 53.37 µg/mL

CNC[C@H](O)c1ccc(O)c(O)c1 [epinephrine bitartrate, (−)-3,4-dihydroxy-α-[(methylamino)methyl]benzyl alcohol (+)-tartrate (1:1) salt]
Absorptivity of Oxidative Products of Epinephrine (Mean ± SD) [2]: 0.001 ± 0.000 | Amount Dissolved ([1]; solubility in acetone): 31.28 µg/mL | Amount Dissolved ([1]; solubility in acetonitrile): 15.46 µg/mL | Amount Dissolved ([1]; solubility in chloroform): 1.87 µg/mL | Amount Dissolved ([1]; solubility in ethyl acetate): 12.60 µg/mL | Amount Dissolved ([1]; solubility in hexane): 0.53 µg/mL | Amount Dissolved ([1]; solubility in isopropyl alcohol): 12.30 µg/mL | Amount Dissolved ([1]; solubility in methanol): 209.01 µg/mL | Amount Dissolved ([1]; solubility in tetrahydrofuran (THF)): 155.18 µg/mL | Mean ± SD particles size ([3]; 0 passes, before processing, n = 6): 131,800 ± 10500 nm | polydispersity (pdi) ([3]; 0.7 mg/ml, 1 pass at 30 KPsi): (0.257 + 0.060) | polydispersity (pdi) ([3]; 0.7 mg/ml, 2 passes at 30 KPsi): (0.119 ± 0.052) | polydispersity (pdi) ([3]; 0.7 mg/ml, 4 passes at 30 KPsi): (0.217 ± 0.035) | polydispersity (pdi) ([3]; 0.7 mg/ml, 5 passes at 30 KPsi): (0.170 ± 0.070) | polydispersity (pdi) ([3]; 0.7 mg/ml, 6 passes at 30 KPsi): (0.195 ± 0.067) | polydispersity (pdi) ([3]; 1.4 mg/ml, 1 pass at 30 KPsi): (0.239 + 0.044) | polydispersity (pdi) ([3]; 1.4 mg/ml, 2 passes at 30 KPsi): (0.158 ± 0.021) | polydispersity (pdi) ([3]; 1.4 mg/ml, 4 passes at 30 KPsi): (0.178 ± 0.039) | polydispersity (pdi) ([3]; 3.5 mg/ml, 1 pass at 30 KPsi): (0.335 + 0.112) | polydispersity (pdi) ([3]; 3.5 mg/ml, 2 passes at 30 KPsi): (0.576 ± 0.080) | polydispersity (pdi) ([3]; 4.5 mg/ml, 1 pass at 30 KPsi): (0.321 + 0.060) | polydispersity (pdi) ([3]; 4.5 mg/ml, 2 passes at 30 KPsi): (0.315 ± 0.055) | particle size before size reduction ([3]; as stated in summary text): 150.7±5 μm | 10th percentile (Dv0.1) ([3]; before processing, n = 6): 39.8 ± 3.0 μm | 90th percentile (Dv0.9) ([3]; before processing, n = 6): 254.8 ± 20.1 | median (Dv0.5) ([3]; before processing, n = 6): 113.6 ± 9.1 μm | color of the fabricated nanosuspension [4]: no change in color
